How the values were obtained:
Type in all cases: in vivo
Lolium perenne (LOLPE) [1] = experiment: Pre-emergence herbicidal activity, glasshouse pot test; settings: 480 h, rate 250 g/ha, evaluated 20 days later, 100=total damage to plant, 0=no damage to plant
Description: (§1) Monocotyledonous and dicotyledonous test plants were sown in standard soil in pots. After cultivation for one day (pre-emergence) or after 10 days cultivation (post-emergence) under controlled conditions in a glasshouse, the plants were sprayed with an aqueous spray solution derived from the formulation of the technical active ingredient in 0.6 ml acetone and 45 ml formulation solution containing 10.6% Emulsogen EL (Registry number 61791-12-6), 42.2% N-methylpyrrolidone, 42.2% dipropylene glycol monomethyl ether (Registry number 34590-94-8) and 0.2% X-77 (Registry number 11097-66-8). The test plants were then grown in a greenhouse under optimum conditions until, 15 days later for post-emergence and 20 days for pre-emergence, the test was evaluated (100=total damage to plant; 0=no damage to plant). Test Plants: Alopecurus myosuroides (ALOMY), Avena fatua (AVEFA), Lolium perenne (LOLPE), Setaria faberi (SETFA), Digitaria sanguinalis (DIGSA), Echinochloa crus-galli (ECHCG)

[2] = test system: Alopecurus myosuroides (ALOMY); experiment: as above; settings: 480 h, rate 250 g/ha, evaluated 20 days later, 100=total damage to plant, 0=no damage to plant
Description: as §1

Setaria faberi (SETFA) [3] = experiment: as above; settings: 480 h, rate 250 g/ha, evaluated 20 days later, 100=total damage to plant, 0=no damage to plant
Description: as §1

Avena fatua (AVEFA) [4] = experiment: as above; settings: 480 h, rate 250 g/ha, evaluated 20 days later, 100=total damage to plant, 0=no damage to plant
Description: as §1

[5] = test system: Echinochloa crus-galli (ECHCG); experiment: as above; settings: 480 h, rate 250 g/ha, evaluated 20 days later, 100=total damage to plant, 0=no damage to plant
Description: as §1

[6] = test system: Digitaria sanguinalis (DIGSA); experiment: as above; settings: 480 h, rate 250 g/ha, evaluated 20 days later, 100=total damage to plant, 0=no damage to plant
Description: as §1

Lolium perenne (LOLPE) [7] = experiment: Post-emergence herbicidal activity, glasshouse pot test; settings: 360 h, rate 125 g/ha, evaluated 15 days later, 100=total damage to plant, 0=no damage to plant
Description: as §1

[8] = test system: Alopecurus myosuroides (ALOMY); experiment: as above; settings: 360 h, rate 125 g/ha, evaluated 15 days later, 100=total damage to plant, 0=no damage to plant
Description: as §1

Setaria faberi (SETFA) [9] = experiment: as above; settings: 360 h, rate 125 g/ha, evaluated 15 days later, 100=total damage to plant, 0=no damage to plant
Description: as §1

Avena fatua (AVEFA) [10] = experiment: as above; settings: 360 h, rate 125 g/ha, evaluated 15 days later, 100=total damage to plant, 0=no damage to plant
Description: as §1

[11] = test system: Echinochloa crus-galli (ECHCG); experiment: as above; settings: 360 h, rate 125 g/ha, evaluated 15 days later, 100=total damage to plant, 0=no damage to plant
Description: as §1

[12] = test system: Digitaria sanguinalis (DIGSA); experiment: as above; settings: 360 h, rate 125 g/ha, evaluated 15 days later, 100=total damage to plant, 0=no damage to plant
Description: as §1

SMILES | pest or weed control at 250 g/ha (Lolium perenne (LOLPE) [1]) [%] | pest or weed control at 250 g/ha [2] [%] | pest or weed control at 250 g/ha (Setaria faberi (SETFA) [3]) [%] | pest or weed control at 250 g/ha (Avena fatua (AVEFA) [4]) [%] | pest or weed control at 250 g/ha [5] [%] | pest or weed control at 250 g/ha [6] [%] | pest or weed control at 125 g/ha (Lolium perenne (LOLPE) [7]) [%] | pest or weed control at 125 g/ha [8] [%] | pest or weed control at 125 g/ha (Setaria faberi (SETFA) [9]) [%] | pest or weed control at 125 g/ha (Avena fatua (AVEFA) [10]) [%] | pest or weed control at 125 g/ha [11] [%] | pest or weed control at 125 g/ha [12] [%]
Cc1cc(-c2ccccc2)cc(C)c1C1=C(OC(=O)C(C)(C)C)[C@H]2[C@@H](C1=O)[C@@H]1CC[C@@]2(C)O1 [Compound P8] | 100 | 100 | 100 | 90 | 90 | 100 | 80 | 100 | 100 | 100 | 100 | 100
CCc1cc(-c2ccc(C)cc2)cc(CC)c1C1=C(OC(C)=O)[C@H]2[C@@H](C1=O)[C@@H]1CC[C@H]2O1 [Compound P9] | 70 | 50 | 60 | 60 | 100 | 40 | 80 | 80 | 90 | 80 | 100 | 100
CCc1ccc(-c2ccc(Cl)cc2)cc1C1=C(O)[C@H]2[C@@H](C1=O)[C@@H]1CC[C@H]2O1 [Compound T2] | 50 | 70 | 80 | 40 | 90 | 70 | 80 | 100 | 100 | 100 | 100 | 100
CCc1ccc(-c2ccc(Cl)cc2)cc1C1=C(O)[C@H]2[C@@H](C1=O)[C@]1(C)CC[C@@]2(C)O1 [Compound T3] | 80 | 70 | 100 | 80 | 100 | 100 | 80 | 100 | 90 | 90 | 90 | 90
Cc1cc(-c2ccccc2)cc(C)c1C1C(=O)[C@@H]2[C@H](C1=O)[C@@]1(C)CC[C@]2(C)O1 (stereo partly drawn) [Compound T7] | 40 | 90 | 100 | 40 | 100 | 100 | 60 | 70 | 90 | 60 | 100 | 80
Cc1cc(-c2ccccc2)cc(C)c1C1C(=O)[C@H]2[C@@H]3CC[C@@](C)(O3)[C@H]2C1=O (stereo partly drawn) [Compound T8] | 80 | 90 | 100 | 50 | 100 | 100 | 70 | 100 | 100 | 90 | 100 | 100
CCc1cc(-c2ccc(C)cc2)cc(CC)c1C1C(=O)[C@@H]2[C@H](C1=O)[C@H]1CC[C@@H]2O1 (stereo partly drawn) [Compound T9] | 80 | 70 | 50 | 50 | 100 | 60 | 80 | 80 | 70 | 20 | 100 | 80
CCc1ccc(-c2ccc(Cl)cc2F)cc1C1=C(O)[C@H]2[C@@H](C1=O)[C@@H]1CC[C@H]2O1 [Compound T10] | 80 | 70 | 100 | 70 | 100 | 100 | 90 | 90 | 100 | 90 | 100 | 100
CCc1ccc(-c2ccc(Cl)cc2)cc1C1=C(O)[C@H]2[C@@H](C1=O)[C@]1(C)C=C[C@@]2(C)O1 [Compound T12] | 60 | 70 | 100 | 20 | 90 | 100 | 80 | 100 | 100 | 100 | 100 | 100
CCc1ccc(-c2ccc(Cl)cc2C)cc1C1=C(O)[C@H]2[C@@H](C1=O)[C@@H]1CC[C@H]2O1 [Compound T13] | 30 | 40 | 80 | 20 | 70 | 80 | 40 | 50 | 80 | 30 | 100 | 10
CCc1ccc(-c2ccc(Cl)c(Cl)c2)cc1C1=C(O)[C@H]2[C@@H](C1=O)[C@@H]1CC[C@H]2O1 [Compound T14] | 40 | 10 | 100 | 20 | 90 | 90 | 30 | 90 | 100 | 80 | 100 | 100
CCc1ccc(-c2ccc(Cl)c(OC)c2)cc1C1=C(O)[C@H]2[C@@H](C1=O)[C@@H]1CC[C@H]2O1 [Compound T15] | 20 | 20 | 80 | 10 | 100 | 90 | 40 | 100 | 100 | 90 | 100 | 100
CCc1ccc(-c2ccc(Cl)c(C(F)(F)F)c2)cc1C1=C(O)[C@H]2[C@@H](C1=O)[C@@H]1CC[C@H]2O1 [Compound T17] | 20 | 0 | 80 | 0 | 90 | 90 | 40 | 90 | 100 | 90 | 100 | 100
CCc1ccc(-c2ccc(Cl)s2)cc1C1=C(O)[C@H]2[C@@H](C1=O)[C@@H]1CC[C@H]2O1 [Compound T18] | 80 | 50 | 90 | 20 | 90 | 100 | 70 | 100 | 100 | 100 | 100 | 100
CCc1ccc(-c2ccc(Cl)c(F)c2)cc1C1=C(O)[C@H]2[C@@H](C1=O)[C@@H]1CC[C@H]2O1 [Compound T19] | 60 | 70 | 90 | 70 | 90 | 100 | 90 | 100 | 100 | 100 | 100 | 100
